# Measurements: patent US6525001B1, “Substituted pyrimidine and pyridine herbicides” (Mid-American Commercialization Corporation, priority 1997, dated 2003)
# Legend:
# Format in all cases: in vivo
# [1] = tested on: ladysthumb smartweed (Polygonum persicaria); test: Test C; design: key: 0 was no effect; 100 was complete control; details: PREEMERGENCE
# [2] = tested on: barnyardgrass (Echinochloa crus-galli); test: Test A pre-/postemergence; design: key: 0 is no effect; 10 is complete control; details: 0 to 10 scale
# Protocol: (§1) Seeds of barnyardgrass (Echinochloa crus-galli), crabgrass (Digitaria spp.), morningglory (Ipomoea spp.), and velvetleaf (Abutilon theophrasti) were planted into a sandy loam soil and treated preemergence by soil drench with test chemicals formulated in a non-phytotoxic solvent mixture which includes a surfactant. At the same time, these crop and weed species were also treated postemergence sprayed to runoff, with test chemicals formulated in the same manner. Plants ranged in height from two to eighteen cm and were in the one to two leaf stage for the postemergence treatment. Treated plants and untreated controls were maintained in a greenhouse for approximately eleven days, after which all treated plants were compared to untreated controls and visually evaluated for injury. Plant response ratings, summarized in Table A, are based on a 0 to 10 scale where 0 is no effect and 10 is complete control. A dash (−) response means no test results.
# [3] = tested on: crabgrass (Digitaria spp.); test: Test A pre-/postemergence; design: key: 0 is no effect; 10 is complete control; details: 0 to 10 scale
# Protocol: as §1
# [4] = tested on: morningglory (Ipomoea spp.); test: Test A pre-/postemergence; design: key: 0 is no effect; 10 is complete control; details: 0 to 10 scale
# Protocol: as §1
# [5] = tested on: velvetleaf (Abutilon theophrasti); test: Test A pre-/postemergence; design: key: 0 is no effect; 10 is complete control; details: 0 to 10 scale
# Protocol: as §1
# [6] = tested on: common groundsel (Senecio vulgaris); test: Test E pre-/postemergence/post directed; design: key: 0 is no effect; 100 is complete control; details: PREEMERGENCE
# Text: (§2) Seeds, tubers, or plant parts of alexandergrass (Brachiaria plantaginea), annual bluegrass (Poa annua), arrowleaf sida (Sida rhombifolia), barnyardgrass (Echinochloa crus-galli), bermudagrass (Cynodon dactylon), citrus (Citrus sinensis), common chickweed (Stellaria media), common purslane (Portulaca oleracea), common ragweed (Ambrosia elatior), common groundsel (Senecio vulgaris), dallisgrass (Paspalum dilatatum), goosegrass (Eleusine indica), green foxtail (Setaria viridis), guineagrass (Panicum maximum), itchgrass (Rottboellia exaltata), johnson grass (Sorghum halepense), kochia (Kochia scoparia), large crabgrass (Digitaria sanguinalis), leafy spurge (Euphorbia esula), pitted morningglory (Ipomoea lacunosa), purple nutsedge (Cyperus rotundus), quackgrass (Agropyron repens), Russian thistle (Salsola kali), sandbur (Cenchrus echinatus), sourgrass (Trichachne insularis), Spanishneedles (Bidens bipinnata), sugarcane (Saccharum officinarum), surinam grass (Brachiaria decumbens) and tall mallow (Malva sylvestris) were planted into greenhouse pots of flats containing greenhouse planting medium. Plant species were grown grown in separate pots or individual compartments. Preemergence applications were made within one day of planting the seed or plant part. Postemergence applications were applied when the plants were in the two to four leaf stage (three to twenty cm).
# (§3) Test chemicals were formulated in a non-phytotoxic solvent mixture which included a surfactant and applied preemergence to the soil surface, postemergence to the plants or as a post directed spray to plants and soil at the base of the target species. Untreated control plants and treated plants were placed in the greenhouse and visually evaluated for injury 13 to 21 days after herbicide application. Plant response ratings, summarized in Table E, are based on a 0 to 100 scale where 0 is no injury and 100 is complete control. A dash (−) response means no test result.
# [7] = tested on: common purslane (Portulaca oleracea); test: Test E pre-/postemergence/post directed; design: key: 0 is no effect; 100 is complete control
# Text: as §2, §3
# [8] = tested on: common ragweed (Ambrosia elatior); test: Test E pre-/postemergence/post directed; design: key: 0 is no effect; 100 is complete control; details: PREEMERGENCE
# Text: as §2, §3
# [9] = tested on: dallisgrass (Paspalum dilatatum); test: Test E pre-/postemergence/post directed; design: key: 0 is no effect; 100 is complete control
# Text: as §2, §3
# [10] = tested on: goosegrass (Eleusine indica); test: Test E pre-/postemergence/post directed; design: key: 0 is no effect; 100 is complete control
# Text: as §2, §3
# [11] = tested on: guineagrass (Panicum maximum); test: Test E pre-/postemergence/post directed; design: key: 0 is no effect; 100 is complete control
# Text: as §2, §3
# [12] = tested on: large crabgrass (Digitaria sanguinalis); test: Test E pre-/postemergence/post directed; design: key: 0 is no effect; 100 is complete control; details: PREEMERGENCE
# Text: as §2, §3
# [13] = tested on: sourgrass (Trichachne insularis); test: Test E pre-/postemergence/post directed; design: key: 0 is no effect; 100 is complete control
# Text: as §2, §3
# [14] = tested on: tall mallow (Malva sylvestris); test: Test E pre-/postemergence/post directed; design: key: 0 is no effect; 100 is complete control; details: PREEMERGENCE
# Text: as §2, §3
# [15] = PRE SOIL DRENCH, Rate 2000 g/ha
# [16] = postemergence SPRAYED TO RUNOFF, Rate 1000 g/ha
smiles,measurement,setting,value
Cc1cnc(-c2ccc(C(F)(F)F)cc2)nc1C(Cl)c1cccc(C(F)(F)F)c1 (racemic) [Compound 21],"Plant response rating, Ladysthumb",[1]; Rate 35 g/ha,0
same,"Plant response rating, Ladysthumb",[1]; Rate 140 g/ha,5
Cc1cnc(-c2ccc(Cl)cc2)nc1Cn1ccc(C(F)(F)F)n1 [Compound 6],"Plant response rating, Barnyardgrass",[2]; [15],8
same,"Plant response rating, Barnyardgrass",[2]; [16],8
same,"Plant response rating, Crabgrass",[3]; [15],9
same,"Plant response rating, Crabgrass",[3]; [16],9
same,"Plant response rating, Morningglory",[4]; [15],5
same,"Plant response rating, Morningglory",[4]; [16],6
same,"Plant response rating, Velvetleaf",[5]; [15],8
same,"Plant response rating, Velvetleaf",[5]; [16],9
Cc1cnc(-c2ccc(C(F)(F)F)cc2)nc1Cn1cc(I)cn1 [Compound 12],"Plant response rating, Barnyardgrass",[2]; [15],7
same,"Plant response rating, Barnyardgrass",[2]; [16],5
same,"Plant response rating, Crabgrass",[3]; [15],9
same,"Plant response rating, Crabgrass",[3]; [16],8
same,"Plant response rating, Morningglory",[4]; [15],3
same,"Plant response rating, Morningglory",[4]; [16],2
same,"Plant response rating, Velvetleaf",[5]; [15],5
same,"Plant response rating, Velvetleaf",[5]; [16],6
Cc1cnc(-c2ccc(C(F)(F)F)cc2)nc1Cn1nc(C(F)(F)F)cc1C [Compound 13],"Plant response rating, Barnyardgrass",[2]; [15],9
same,"Plant response rating, Barnyardgrass",[2]; [16],6
same,"Plant response rating, Crabgrass",[3]; [15],10
same,"Plant response rating, Crabgrass",[3]; [16],9
same,"Plant response rating, Morningglory",[4]; [15],3
same,"Plant response rating, Morningglory",[4]; [16],2
same,"Plant response rating, Velvetleaf",[5]; [15],9
same,"Plant response rating, Velvetleaf",[5]; [16],8
COc1cnc(-c2ccc(C(F)(F)F)cc2)nc1Cc1cccc(C(F)(F)F)c1 [Compound 23],"Plant response rating, Ladysthumb",[1]; Rate 35 g/ha,5
same,"Plant response rating, Ladysthumb",[1]; Rate 70 g/ha,80
same,"Plant response rating, Ladysthumb",[1]; Rate 140 g/ha,80
same,"Plant response rating, Com. groundsel",[6]; Rate 32 g/ha,100
same,"Plant response rating, Com. groundsel",[6]; Rate 64 g/ha,100
same,"Plant response rating, Com. groundsel",[6]; Rate 125 g/ha,100
same,"Plant response rating, Com. groundsel",[6]; Rate 250 g/ha,100
same,"Plant response rating, Com. purslane","[7]; POSTEMERGENCE, Rate 250 g/ha",50
same,"Plant response rating, Com. purslane","[7]; PREEMERGENCE, Rate 32 g/ha",100
same,"Plant response rating, Com. purslane","[7]; PREEMERGENCE, Rate 64 g/ha",100
same,"Plant response rating, Com. purslane","[7]; PREEMERGENCE, Rate 125 g/ha",100
same,"Plant response rating, Com. purslane","[7]; PREEMERGENCE, Rate 250 g/ha",100
same,"Plant response rating, Com. ragweed",[8]; Rate 125 g/ha,100
same,"Plant response rating, Com. ragweed",[8]; Rate 250 g/ha,100
same,"Plant response rating, Dallisgrass","[9]; POSTEMERGENCE, Rate 250 g/ha",40
same,"Plant response rating, Dallisgrass","[9]; PREEMERGENCE, Rate 32 g/ha",80
same,"Plant response rating, Dallisgrass","[9]; PREEMERGENCE, Rate 64 g/ha",85
same,"Plant response rating, Dallisgrass","[9]; PREEMERGENCE, Rate 125 g/ha",90
same,"Plant response rating, Dallisgrass","[9]; PREEMERGENCE, Rate 250 g/ha",100
same,"Plant response rating, Goosegrass","[10]; POSTEMERGENCE, Rate 250 g/ha",75
same,"Plant response rating, Goosegrass","[10]; PREEMERGENCE, Rate 32 g/ha",98
same,"Plant response rating, Goosegrass","[10]; PREEMERGENCE, Rate 64 g/ha",98
same,"Plant response rating, Goosegrass","[10]; PREEMERGENCE, Rate 125 g/ha",98
same,"Plant response rating, Goosegrass","[10]; PREEMERGENCE, Rate 250 g/ha",100
same,"Plant response rating, Guineagrass","[11]; POSTEMERGENCE, Rate 250 g/ha",75
same,"Plant response rating, Guineagrass","[11]; PREEMERGENCE, Rate 32 g/ha",80
same,"Plant response rating, Guineagrass","[11]; PREEMERGENCE, Rate 64 g/ha",98
same,"Plant response rating, Guineagrass","[11]; PREEMERGENCE, Rate 125 g/ha",98
same,"Plant response rating, Guineagrass","[11]; PREEMERGENCE, Rate 250 g/ha",100
same,"Plant response rating, Large crabgrass",[12]; Rate 125 g/ha,100
same,"Plant response rating, Large crabgrass",[12]; Rate 250 g/ha,100
same,"Plant response rating, Sourgrass","[13]; POSTEMERGENCE, Rate 250 g/ha",30
same,"Plant response rating, Sourgrass","[13]; PREEMERGENCE, Rate 32 g/ha",98
same,"Plant response rating, Sourgrass","[13]; PREEMERGENCE, Rate 64 g/ha",98
same,"Plant response rating, Sourgrass","[13]; PREEMERGENCE, Rate 125 g/ha",100
same,"Plant response rating, Sourgrass","[13]; PREEMERGENCE, Rate 250 g/ha",100
same,"Plant response rating, Tall Mallow",[14]; Rate 32 g/ha,80
same,"Plant response rating, Tall Mallow",[14]; Rate 64 g/ha,85
same,"Plant response rating, Tall Mallow",[14]; Rate 125 g/ha,85
same,"Plant response rating, Tall Mallow",[14]; Rate 250 g/ha,90
